≈ marks a conversion by molar mass, not a printed value. Like-named read-outs stand apart in the source and are kept apart here. Where a SMILES comes first, the peptide text is derived from it. Where no end group is shown, it is not given here. [ ]: non-standard residue; d: D form. The star is where a group is joined. Decanoyl = CCCCCCCCCC(=O)*
Legend:
C. albicans PEEC 2 = type: cell-based, Candida albicans; settings: PEEC 2, 24 h
Procedure: (§1) Each inoculum was taken and the cellular concentration was adjusted to 2 × 10^3 CFU/mL in Sabouraud Dextrose Broth (SDB) (Biokar Diagnostics, Cedex, France). Next, 50 µL of these inocula was added to 50 µL of peptide solution in serial 2-fold dilutions. […] […] The test was conducted in triplicate.

Hemolysis assay = type: cell-based, human; settings: human, erythrocytes (red blood cells); at higher concentrations (400 μM)
Procedure: (§2) Hemolytic activity was determined using red blood cells and the hemoglobin released was measured at 405 nm. The percentage of hemolysis corresponding to the synthetic compounds is shown in Figure 1 while the HC50 values are provided in Table 3. […] Substitutions by N-methyl and D-amino acids reduced the hemolytic activity of the peptides and lipopeptides. […] For all the peptides and most of the lipopeptides, the HC50 values exceeded 400 μM. Indeed, the HC50 values were lower only for C10:0-A2(9-NMeLys) and C10:0-A2, which were around 300 and 200 μM, respectively.
(§3) Erythrocyte lysis was determined using the following previously optimized protocols. Human erythrocytes from a healthy voluntary donor were isolated by centrifugation (3000 rpm for 10 min) after washing three times with Physiological Solution (PS). Erythrocyte solutions were prepared at a concentration of 0.4% (v/v) in PS. Test tubes containing 200 µL of erythrocyte solution were incubated at 37 °C for 60 min with 200 µL of peptide solution at concentrations ranging from 6.25 to 400 µM. After centrifugation at 3000 rpm for 5 min, supernatant absorbance was measured at 405 nm. Lysis induced by 1% Triton X-100 was taken as a 100% reference value.

Human erythrocytes = experiment: Hemolysis assay; type: cell-based; settings: human erythrocytes 0.4% (v/v), 37 °C, 60 min, 6.25 to 400 µM
Procedure: as §2, §3

E. coli ATCC 35218 = type: cell-based, Escherichia coli; settings: ATCC 35218, 24 h
Procedure: (§4) The test was conducted in triplicate.

in vitro = settings: human, 50% (v/v) human serum in phosphate buffer, pH 7.2
Procedure: A 50% (v/v) human serum solution in phosphate buffer (pH: 7.2) was added to the peptide solution (concentration: 2 mg/mL) and incubated for 8 h at 37 °C. Aliquots were taken at different time points (0, 30, 60, 120, 240, 360, and 480 min) and serum proteins were immediately precipitated with a mixture of ACN-water-TFA (89:10:1). They were kept at 4 °C for 45 min and then centrifuged for 15 min at 10,000 rpm. The supernatants were then analyzed by HPLC-RP using a C18 analytical column (Beckman, Indianapolis, IN, USA). A linear gradient from 5% to 50% of ACN in H2O containing 0.1% TFA was used, at a flow rate of 0.8 mL/min. Absorbance was measured at 220 nm. […] The test was conducted in duplicate.

E. faecalis ATCC 29212 = type: cell-based, Enterococcus faecalis
Procedure: as §4

Yeast [1] = settings: for MIC Average Yeast: 24 h; for TI Yeast, HC50/MIC average: first value of the cell, a single value holds for HC50 and IC50 (400 µM used); for TI Yeast, IC50/MIC average: second value of the cell, HeLa IC50 based
Procedure: Each inoculum was taken and the cellular concentration was adjusted to 2 × 10^3 CFU/mL in Sabouraud Dextrose Broth (SDB) (Biokar Diagnostics, Cedex, France). Next, 50 µL of these inocula was added to 50 µL of peptide solution in serial 2-fold dilutions. […] The MIC was considered the lowest peptide concentration that inhibited visible growth of each yeast strain. The test was conducted in triplicate.
(§5) The TI is defined as the relationship between the concentration that caused 50% of hemolysis (HC50) or a 50% reduction in HeLa cell viability and the MIC. Thus, higher TI values indicate greater antimicrobial specificity. […] The average MIC for each peptide against different microorganism groups was used to calculate the TI value.

HeLa cells = settings: for IC50: 24 h
Procedure: We assessed the cytotoxicity of the compounds synthesized using HeLa cells.
The 3–4,5-dimethylthiazol-2,5-biphenyl tetrazolium bromide (MTT) cell viability assay was used to assess the cytotoxic activity of synthetic compounds against the human HeLa line. HeLa cells were seeded in 96-well plates at 1 × 10^5 cells/well, in which the peptide solution was added at different concentrations (3.125–400 μM) for 24 h of incubation. Next, MTT reagent (Sigma-Aldrich, St. Louis, MO, USA) was added, and the cells were incubated for 2 h. Then, 100 μL of dimethylsulfoxide (DMSO) was added to each well to dissolve formazan crystals, and the plates were read at 595 nm.

[2] = at 200 μM; cited from earlier work
S. aureus ATCC 25923 = type: cell-based, Staphylococcus aureus
Procedure: as §4

P. aeruginosa ATCC 27853 = type: cell-based, Pseudomonas aeruginosa; settings: ATCC 27853, 24 h
Procedure: as §4

[3] = system: S. aureus RM * SA1 (Methicillin-resistant Staphylococcus aureus); settings: S. aureus RM * SA1 (MRSA)
C. tropicalis DBFIQ 3 = type: cell-based, Candida tropicalis; settings: DBFIQ 3, 24 h
Procedure: as §1

Gram (+) bacteria = settings: for MIC Average Bacteria Gram (+): average over Gram (+) strains; for TI Bacteria Gram (+), HC50/MIC average: first value of the cell, a single value holds for HC50 and IC50 (400 µM used); for TI Bacteria Gram (+), IC50/MIC average: second value of the cell, HeLa IC50 based
Procedure: (§6) The MIC against bacterial strains was determined by the modified broth microtiter dilution method, following the procedures proposed by R.E.W. Hancock Laboratory for testing antimicrobial peptides. The target strains Escherichia coli ATCC 35218, Pseudomonas aeruginosa ATCC 27853, Enterococcus faecalis ATCC 29212, and Staphylococcus aureus ATCC 25923 belong to the American Type Culture Collection (ATCC). The Methicillin-Resistant Staphylococcus aureus BSF FBCB1313 strain (MRSA) was provided by the Clinical Bacteriology Section of FBCB-UNL. All strains were activated by culture for 24 h at 37 °C in Mueller-Hinton Broth (MHB) (Biokar Diagnostics, Cedex, France). Each inoculum was taken and adjusted to a cellular concentration of 5 × 10^5 colony-forming units (CFU)/mL in diluted MHB. All the peptides were dissolved in bovine serum albumin buffer with the addition of 0.01% acetic acid; 100 µL of each inoculum was added to 11 µL of peptide solution in serial 2-fold dilutions and were incubated for 18–24 h at 37 °C. The MIC was the lowest peptide concentration that inhibited visible growth of each bacterial strain. The test was conducted in triplicate.
as §5

Gram (−) bacteria = settings: for MIC Average Bacteria Gram (−): average over Gram (−) strains; for TI Bacteria Gram (−), HC50/MIC average: first value of the cell, a single value holds for HC50 and IC50 (400 µM used); for TI Bacteria Gram (−), IC50/MIC average: second value of the cell, HeLa IC50 based
Procedure: as §6, §5

Yeast [4] = settings: cited from earlier work
trypsin = settings: after 7 h of treatment
Procedure: (§7) The enzymatic stability of the peptides and lipopeptides was determined by measuring residual antimicrobial activity using the agar diffusion method [42]. To this end, 60 µL of the peptide (treated and untreated) in phosphate buffer (0.1 mM pH: 5.5) was added to a 7 mm well on an agar plate previously seeded with 1 mL of a fresh culture of S. aureus ATCC 25923. The plates were incubated for between 18 and 24 h at 37 °C, and then the inhibition halo diameter was measured. The test was conducted in duplicate.

[5] = Critical micelle concentration by conductimetry in Milli-Q water; type: physicochemical; settings: 25 °C
Procedure: On the other hand, acylation confers that the peptide has capacity to self-assemble into nanostructures, resulting in a surfactant-like structure, which may affect the extent of peptide insertion and disruption of bacterial membrane integrity. In this work, the CMC of the lipopeptides was determined by conductimetry in Milli-Q water. All the lipopeptides adopted a micellar assembly with CMC values ranging from 2.0 to 5.7 mM (Table 1). […] This effect appeared to be more important when substitution by an N-methyl amino acid was performed on amino acids located on the non-polar face of the amphipathic helix (CMC values of C10:0-A2(8-NMePhe) = 2.01 mM). For all the lipopeptides, the CMC values remained above the MIC values, which could indicate that these molecules interact with the cell membrane as monomers and, consequently, that this property would not be necessary for antimicrobial activity. This notion is in concordance with reports in the literature on short cationic lipopeptides.
A lipopeptide solution was prepared in Milli Q water, and the specific conductivity of each lipopeptide solution, in a concentration ranging from 0.06 to 18 mg/mL, was measured using a drop conductivity meter (HORIBA, Kyoto, Japan), at 25 °C. Conductivity values were plotted vs. lipopeptide concentration (mS × cm^−1 vs. mg/mL), and the CMC was graphically determined.

Procedure for chymotrypsin: as §7

| Compound | MIC (C. albicans PEEC 2) [µM] | hemolysis at 60 min, 400 µM (Hemolysis assay) [%] | HC50 ± SD (Human erythrocytes) [µM] | MIC (E. coli ATCC 35218) [µM] | remaining at 1 h (in vitro) [%] | MIC (E. faecalis ATCC 29212; ATCC 29212, 24 h) [µM] | MIC Average Yeast (Yeast [1]) [µM] | TI Yeast, HC50/MIC average (Yeast [1]) | TI Yeast, IC50/MIC average (Yeast [1]) | IC50 (HeLa cells) [µM] | reduction of HeLa viability (HeLa cells; HeLa cells, MTT) | hemolysis [2] | MIC (S. aureus ATCC 25923; ATCC 25923, 24 h) [µM] | MIC (P. aeruginosa ATCC 27853) [µM] | MIC [3] [µM] | MIC (C. tropicalis DBFIQ 3) [µM] | MIC Average Bacteria Gram (+) (Gram (+) bacteria) [µM] | TI Bacteria Gram (+), HC50/MIC average (Gram (+) bacteria) | MIC Average Bacteria Gram (−) (Gram (−) bacteria) [µM] | TI Bacteria Gram (−), HC50/MIC average (Gram (−) bacteria) | further results |
| --- | --- | --- | --- | --- | --- | --- | --- | --- | --- | --- | --- | --- | --- | --- | --- | --- | --- | --- | --- | --- | --- |
| KLFKKLFKKLFK-NH2 [TA4, KLFKKLFKKLFK-NH2] | 40.8 | ~65 | >400 | 5.1 | ~40 | 5.1 | 40.8 | 9.8 | 1.1 | 46.4 ± 10.1 | more than 60% | around 40% | 2.6 | 2.6 | 10.2 | 40.8 | 6.0 | 66.7 | 3.9 | 102.6 | IC50 (HeLa cells; read-out: IC50 ± SD, HeLa cells, MTT, 3.125–400 μM): 46 µM; TI Bacteria Gram (+), IC50/MIC average (Gram (+) bacteria): 7.7; TI Bacteria Gram (−), IC50/MIC average (Gram (−) bacteria): 11.9; MIC (Yeast [4]; against yeast): 40.8 µM |
| CCCCCCCCCC(=O)N[C@H](C(=O)N[C@H](CCCCN)C(=O)N[C@@H](CCC(N)=O)C(=O)N[C@H](C(=O)N[C@H](CCCCN)C(=O)N[C@H](CCCCN)C(=O)N[C@@H](CC(C)C)C(=O)N[C@@H](Cc1ccccc1)C(=O)N[C@H](CCCCN)C(=O)N[C@H](CCCCN)C(N)=O)C(C)C)[C@@H](C)CC [C10:0-A2(dK), C10:0-IdKQVdKdKLFdKdK-NH2] (Decanoyl-I[dK]QV[dK][dK]LF[dK][dK]-NH2) | 90.6 (≈ 128 µg/mL) |  | >400 | 22.6 (≈ 31.9 µg/mL) |  |  | 135.9 (≈ 192 µg/mL) | 2.9 |  | > 400 |  |  |  | 1.6 (≈ 2.26 µg/mL) | >90.6 | 181.2 (≈ 256 µg/mL) | >90.6 | <4.4 | 12.1 (≈ 17.1 µg/mL) | 33.1 | MIC (E. faecalis ATCC 29212; E. faecalis ATCC 29212): >90.6 µM; MIC (S. aureus ATCC 25923; S. aureus ATCC 25923): >90.6 µM; retained antimicrobial activity (chymotrypsin; after 3 h of treatment): 75%; residual antimicrobial activity (chymotrypsin; after more than 3 h of treatment, in words): total loss of activity; retained inhibition activity against S. aureus strain ATCC 25923 (trypsin): 80% |
| CCCCCCCCCC(=O)N[C@H](C(=O)N[C@@H](CCCCN)C(=O)N[C@@H](CCC(N)=O)C(=O)N[C@H](C(=O)N[C@@H](CCCCN)C(=O)N[C@@H](CCCCN)C(=O)N[C@@H](CC(C)C)C(=O)N[C@@H](Cc1ccccc1)C(=O)N[C@@H](CCCCN)C(=O)N[C@@H](CCCCN)C(N)=O)C(C)C)[C@@H](C)CC [C10:0-A2, C10:0-IKQVKKLFKK-NH2] (Decanoyl-IKQVKKLFKK-NH2) | 90.6 (≈ 128 µg/mL) | ~45 | 202.9 ± 17.5 | 1.4 (≈ 1.98 µg/mL) | ~20 | 1.4 (≈ 1.98 µg/mL) | 90.6 (≈ 128 µg/mL) | 2.2 | 0.4 | 32.6 ± 2.49 | more than 60% | around 50% | 1.4 (≈ 1.98 µg/mL) | 1.4 (≈ 1.98 µg/mL) | 2.8 (≈ 3.96 µg/mL) | 90.6 (≈ 128 µg/mL) | 1.9 (≈ 2.68 µg/mL) | 106.8 | 1.4 (≈ 1.98 µg/mL) | 144.9 | CMC [5]: 5.74 mM; TI Bacteria Gram (+), IC50/MIC average (Gram (+) bacteria): 17.2; TI Bacteria Gram (−), IC50/MIC average (Gram (−) bacteria): 23.3; MIC (Yeast [4]; yeast): 90.6 µM (≈ 128 µg/mL) |

Reference: publication PMC10215143, “D- and N-Methyl Amino Acids for Modulating the Therapeutic Properties of Antimicrobial Peptides and Lipopeptides” (Antibiotics, 2023)
